Tests used:
[1] = test system: Botrytis cinerea (BOTRCI) on strawberries; test: In vivo disease severity on wound-inoculated strawberries, benzoxaborole and CO2 chamber treatment
Text: (§1) The following experiments were used to determine synergy between benzoxaborole Compounds A, B, and/or C and preservative gases, such as carbon dioxide (CO2) and sulfur dioxide (SO2). Specific rates or any other unique conditions are noted within the corresponding results tables. Each experiment comprised an air-tight 36 liter (L) chamber (Fisher Scientific, P/N: 08-642-23C), fitted with a bulkhead septum port (Swagelok, P/N: SS-400-61, Solon, OH) used for treatment delivery, as well as for monitoring (using needle extraction) carbon dioxide (CO2), sulfur dioxide (SO2), oxygen (O2) or other headspace samples. A variable speed fan (Thermaltake, Mobile Fan II, P/N: A1888, Taipei City, Taiwan) set to low was also used to circulate the headspace atmosphere.
(§2) For in vivo experiments, eight strawberry fruits per repetition were surface sterilized with a 70% ethanol solution. After sterilization, the strawberries were rinsed twice with deionized water. Each strawberry fruit was wounded using a T15 screwdriver tip to a uniform depth of eight mm (8 mm). Each fruit wound was inoculated with 20 μL of 1×10^5 spores/ml pathogen spore suspension of B. cinerea or M. piriformis. The strawberries were then placed with the stem facing downwards inside a 1-pound strawberry clamshell.
(§3) For treatment, the inoculated agar plates and clamshells containing fruits (e.g., strawberries and grapes) were placed inside a 36 L experimental chamber unit, which was then sealed prior to commencement of compound treatments. The chamber remained sealed throughout the duration of the experiment except for addition of treatment to the chamber, and post-treatment ventilation.
(§4) Benzoxaborole Compound A or Compound B was dissolved in acetone and dispensed onto a 60 mm Whatman #1 filter paper disk using a pipette. The acetone was permitted to evaporate for five minutes before the disk was placed on a watch glass in each chamber.
(§5) A 12% CO2 headspace treatment was then established in the chamber by permitting 10 grams (g) of crushed dry ice placed in a weigh boat in the chamber to evaporate in the sealed chamber. However, the bulkhead port of the chamber was loosened to permit the release of internal pressure. Optionally, a fan was used during the initial hours of treatment (i.e., up to about 6 hours of treatment) to ensure uniform treatment exposure of fruits and plates.
(§6) Untreated controls and CO2 treated chambers contained an acetone-treated disk with similar evaporation for five minutes. CO2 and O2 levels in the chamber were monitored using a handheld gas detector (Dansensor Checkpoint II; P/N 600111, Ringsted, Denmark). Temperature and relative humidity were also monitored within the chamber using data loggers (Onset HOBO; P/N U12-013, Bourne, MA).
(§7) The chamber for all in vitro and in vivo experiments was held at room temperature (i.e., from about 21° C. to about 23° C.) typically for about 3.5 days (i.e., about 84 hours) of treatment exposure. Chambers were then vented. After an additional 2-3 days with the chamber at room temperature, post-treatment radial growth (in mm) of each in vitro pathogen (see Examples 1-7, Tables 1-7) was measured on the inoculated plates using electronic calipers (Mitutoyo, P/N: CD-6-CX, Aurora, IL). In addition, the point of inoculation on fruits was assessed for indication of in vivo disease incidence (e.g., yes or no) and severity of disease incidence (see Examples 8-16, Tables 8-16). Disease severity was rated on a scale ranging from 0 to 4, where “0” indicated no disease severity, “1” indicated minimal disease severity, “2” indicated medium disease severity, “3” indicated high disease severity, and “4” indicated exceptionally high disease severity. […]

[2] = test system: Mucor piriformis (MUCOPI) on strawberries; test: as above; conditions: Table 10, 12% CO2 alone, evaluated 2 days after treatment, fan first 6 hours, >90% R.H.
Text: as §1, §2, §3, §4, §5, §6, §7

[3] = test system: Mucor piriformis (MUCOPI); test: In vitro fungal growth on inoculated agar plates, benzoxaborole and CO2 chamber treatment; format: cell-based; conditions: Table 3, 12% CO2 alone, evaluated 2 days after treatment, 6-well microtiter plate, fan first 6 hours, >90% R.H.
Text: as §1
(§8) In vitro and in vivo experiments were performed concurrently in triple replicates (i.e., triplicate) unless otherwise noted. For in vitro experiments, a single 6-well microtiter plate or three, 10-cm petri plates each containing half strength Potato Dextrose Agar were prepared. Each well or plate was inoculated with 1 microliter (μL) of 1×10^5 spores/ml of the appropriate pathogenic spore suspension (e.g., Botrytis cinerea, BOTRCI; Penicillium expansum, PENIEX; Mucor piriformis, MUCOPI; Fusarium sambucinum FUSASA; or Aspergillus brasiliensis, ASPEBR). The inoculated microtiter or petri plates were then sealed with a breathable film (AeraSeal; P/N: B-100, Excel Scientific, Victorville, CA).
as §3, §4, §5, §6, §7

[4] = test system: Fusarium sambucinum (FUSASA); test: as above; format: cell-based
Text: as §1, §8, §3, §4, §5, §6, §7

[5] = test system: Penicillium expansum (PENIEX); test: as above; format: cell-based
Text: as §1, §8, §3, §4, §5, §6, §7

[6] = test system: Botrytis cinerea (BOTRCI); test: as above; format: cell-based
Text: as §1, §8, §3, §4, §5, §6, §7

[7] = test system: Aspergillus brasiliensis (ASPEBR); test: as above; format: cell-based
Text: as §1, §8, §3, §4, §5, §6, §7

[8] = test system: Penicillium expansum (PENIEX) on table grapes; test: In vivo disease severity on wound-inoculated table grapes, benzoxaborole and CO2 chamber treatment; conditions: Table 16, 12% CO2 alone, evaluated 1 day after treatment, fan continuous
Text: as §1
(§9) Similarly, table grape fruits were also tested in vivo. More specifically, 16-20 table grapes per repetition were washed and inoculated with pathogens (as described above for the strawberries). However, an ethanol-sterilized push pin, rather than a T15 screwdriver, was used to wound the stem-end of the grapes. The grapes were inoculated in the wound, and then arranged inside a 1-pint clamshell.
as §3, §4, §5, §6, §7

[9] = test system: Botrytis cinerea (BOTRCI) on table grapes; test: as above; conditions: Table 15, 12% CO2 alone, evaluated 1 day after treatment, fan continuous
Text: as §1, §9, §3, §4, §5, §6, §7

[10] = Table 5, 12% CO2 alone, evaluated 2 days after treatment, 6-well plate, fan first 6 hours, >90% R.H.
[11] = Table 1, 12% CO2 alone, evaluated 2 days after treatment completion, 6-well microtiter plate, 4 replicates, fan first 6 hours
[12] = Table 4, 12% CO2 alone, evaluated 2 days after treatment completion, 6-well microtiter plate, fan first 6 hours
[13] = Table 5, compound 0.14 mg/L + 12% CO2, Colby equation E=x+y−x*y/100
[14] = Table 5, compound 0.14 mg/L + 12% CO2, evaluated 2 days after treatment, 6-well plate, fan first 6 hours, >90% R.H.
[15] = Table 5, compound alone 0.14 mg/L, evaluated 2 days after treatment, 6-well plate, fan first 6 hours, >90% R.H.

`O=C=O` [CO2, carbon dioxide] was tested. Which “Growth (Severity, 0 to 4) 12% CO2” value ([1]; Table 8, 12% CO2 alone, evaluated 2 days after treatment, 4 replicates, fan first 6 hours, >90% R.H.) did it give?
The value was 3.7.

What about the “Growth (Severity, 0 to 4) 12% CO2” value ([1]; Table 9, 12% CO2 alone, evaluated 3 days after treatment, fan first 6 hours, >90% R.H.) of the same compound?
The value was 3.5.

And the “Growth (Severity, 0 to 4) 12% CO2” value ([1]; Table 11, 12% CO2 alone, evaluated 2 days after treatment, fan first 6 hours, >90% R.H.)?
Its value is 2.7.

And the “Growth (Severity, 0 to 4) 12% CO2” value ([1]; Table 12, 12% CO2 alone, evaluated 2 days after treatment, fan first 6 hours, >90% R.H.)?
Its value is 3.4.

What about the “Growth (Severity, 0 to 4) 12% CO2” value ([1]; Table 13, 12% CO2 alone, evaluated 3 days after treatment, fan run continuously) of the same compound?
The value was 3.2.

And the “Growth (Severity, 0 to 4) 12% CO2” value ([1]; Table 14, 12% CO2 alone, evaluated 3 days after treatment, fan continuous)?
Its value is 3.9.

And the “Growth (Severity, 0 to 4) 12% CO2” value [2]?
The value was 3.0.

What about the “Growth (diameter, mm) 12% CO2” value [3] of the same compound?
The value was 35.0 mm.

What about the “Growth (diameter, mm) 12% CO2” value [4, 10] of the same compound?
The value was 33.9 mm.

And the “Growth (diameter, mm) 12% CO2” value [5, 11]?
The value was 18.6 mm.

And the “Growth (diameter, mm) 12% CO2” value ([5]; Table 2, 12% CO2 alone, evaluated 2 days after treatment, 6-well microtiter plate, fan first 6 hours, >90% R.H.)?
Its value is 21.3 mm.

And the “Growth (diameter, mm) 12% CO2” value [5, 12]?
The value was 21.2 mm.

What about the “Growth (diameter, mm) 12% CO2” value [5, 10] of the same compound?
Its value is 19.9 mm.

What about the “Growth (diameter, mm) 12% CO2” value ([5]; Table 7, 12% CO2 alone, evaluated 3 days after treatment, 10 cm Petri plates, fan continuous) of the same compound?
The value was 25.8 mm.

What about the “Growth (diameter, mm) 12% CO2” value [6, 11] of the same compound?
Its value is 28.0 mm.

And the “Growth (diameter, mm) 12% CO2” value ([6]; Table 3, 12% CO2 alone, evaluated 2 days after treatment, 6-well microtiter plate, fan first 6 hours, >90% R.H.)?
The value was 30.9 mm.

And the “Growth (diameter, mm) 12% CO2” value [6, 12]?
Its value is 33.4 mm.

And the “Growth (diameter, mm) 12% CO2” value [6, 10]?
Its value is 35.0 mm.

And the “Growth (diameter, mm) 12% CO2” value ([6]; Table 6, 12% CO2 alone, evaluated 3 days after treatment, 10 cm petri plates, fan continuous)?
Its value is 78.9 mm.

What about the “Growth (diameter, mm) 12% CO2” value [7, 10] of the same compound?
The value was 26.2 mm.

What about the “Growth (Severity, 0 to 4) 12% CO2” value [8] of the same compound?
Its value is 1.9.

And the “Growth (Severity, 0 to 4) 12% CO2” value [9]?
The value was 1.4.

Which “Colby Calculation” value ([1]; Table 11, compound 0.14 mg/L + 12% CO2, Colby equation E=x+y−x*y/100) does the source give for `Fc1ccc2c(c1)COB2OCCOB1OCc2cc(F)ccc21` [Compound B] here?
Its value is 105.0.

What about the “Growth (Severity, 0 to 4) Cmpd + 12% CO2” value ([1]; Table 11, compound 0.14 mg/L + 12% CO2, evaluated 2 days after treatment, fan first 6 hours, >90% R.H.) of the same compound?
Its value is 0.5.

And the “Growth (Severity, 0 to 4) Cmpd” value ([1]; Table 11, compound alone 0.14 mg/L, evaluated 2 days after treatment, fan first 6 hours, >90% R.H.)?
The value was 0.9.

What about the “Colby Calculation” value ([1]; Table 12, compound 0.14 mg/L + 12% CO2, Colby equation E=x+y−x*y/100) of the same compound?
The value was 100.9.

What about the “Growth (Severity, 0 to 4) Cmpd + 12% CO2” value ([1]; Table 12, compound 0.14 mg/L + 12% CO2, evaluated 2 days after treatment, fan first 6 hours, >90% R.H.) of the same compound?
The value was 0.3.

What about the “Growth (Severity, 0 to 4) Cmpd” value ([1]; Table 12, compound alone 0.14 mg/L, evaluated 2 days after treatment, fan first 6 hours, >90% R.H.) of the same compound?
Its value is 0.4.

What about the “Colby Calculation” value [4, 13] of the same compound?
Its value is 100.4.

And the “Growth (diameter, mm) Cmpd + 12% CO2” value [4, 14]?
The value was 3.4 mm.

What about the “Growth (diameter, mm) Cmpd” value [4, 15] of the same compound?
The value was 3.6 mm.

What about the “Colby Calculation” value [5, 13] of the same compound?
Its value is 102.4.

What about the “Growth (diameter, mm) Cmpd + 12% CO2” value [5, 14] of the same compound?
The value was 6.4 mm.

And the “Growth (diameter, mm) Cmpd” value [5, 15]?
Its value is 7.7 mm.

And the “Colby Calculation” value [6, 13]?
Its value is 103.4.

What about the “Growth (diameter, mm) Cmpd + 12% CO2” value [6, 14] of the same compound?
Its value is 2.7 mm.

What about the “Growth (diameter, mm) Cmpd” value [6, 15] of the same compound?
The value was 3.5 mm.

And the “Colby Calculation” value [7, 13]?
Its value is 112.0.

And the “Growth (diameter, mm) Cmpd + 12% CO2” value [7, 14]?
The value was 0.0 mm.

And the “Growth (diameter, mm) Cmpd” value [7, 15]?
Its value is 3.6 mm.
